In patent US8481523B2, “Biocide composition comprising pyrithione and pyrrole derivatives” (Arch Chemicals, Inc., priority 2006, dated 2013):
Entries after “also recorded” stand apart in the source; their conditions may differ.

System: barnacles
Test: Paint efficacy testing: coated fiberglass rods suspended in the ocean, number of barnacles counted monthly
Assay type: in vivo
Conditions: paint formulations on rods in the ocean, Beaufort, N.C. coast, 2004
Procedure: A series of nine paint formulations containing 4-bromo-2-(4-chlorophenyl)-5-(trifluoromethyl)-1H-pyrrole-3-carbonitrile (referred to in below table as Pyrrole) and zinc pyrithione (ZPT) were tested by Duke University off the Beaufort, N.C. coast in 2004 for their antifouling effectiveness against barnacles and other fouling organisms. The formulations were created in the laboratory by the addition of various amounts of biocides to a resin base-formulation (vinyl resin/wood rosin with Zn oxide filler). Formulations include 4-bromo-2-(4-chlorophenyl)-5-(trifluoromethyl)-1H-pyrrole-3-carbonitrile alone and in combination with ZPT. A solvent based zinc oxide coating was used as a control. Unprimed fiberglass rods (8 mm diameter×11 cm length) were dip-coated with each formulation (5 rods/formulation) and suspended from a test rack in the ocean (one-meter below the surface). Rods were evaluated each month for number of barnacles and bryozoans. The most promising results came from the formulations in which 4-bromo-2-(4-chlorophenyl)-5-(trifluoromethyl)-1H-pyrrole-3-carbonitrile was blended with ZPT (See Table 1 below).

**Q.** With `N#Cc1c(-c2ccc(Cl)cc2)[nH]c(C(F)(F)F)c1Br` [4-bromo-2-(4-chlorophenyl)-5-(trifluoromethyl)-1H-pyrrole-3-carbonitrile] as the compound, how does the “antifouling effectiveness against barnacles and other fouling organisms (in words)” value read?
**A.** effective antifouling agent for hard fouling organisms such as barnacles; also recorded: performs better with ZPT as a co-biocide than it does alone
